The test system of experiment [1] is permeability transition pore (PTP). As to the kind of experiment: Swelling of isolated mitochondria (large amplitude swelling, 90° light scattering). Particulars: for Induction of Mitochondrial swelling (sw): 5 μM, 20 min, isolated mitochondria. The format is biochemical, rat. Details: key to Induction of Mitochondrial swelling (sw): +++ rapid sw; ++ low sw; + very low sw; − no sw t 20 min. On the procedure:
Mitochondria are purified from rat liver, as described (Costantini et al., 1996), and resuspended in 250 mM sucrose+0.1 mM EGTA+10 mM-tris[hydroxymethyl]methyl-2-Aminoethanesulfonic acid, pH=7.4). For the induction of PT, mitochondria (0.5 mg protein per ml) are resuspended in PT buffer (200 mM sucrose, 10 mM Tris-MOPS (pH 7.4), 5 mM Tris-succinate, 1 mM Tris-phosphate, 2 μM rotenone, and 10 μM EGTA-Tris), and monitored in an F4500 fluorescence spectrometer (Hitachi, Tokyo, Japan) for the 90° light scattering of light ([…]), 1 μM cyclosporin A (CsA; Novartis, Basel, Switzerland), 5 μM CaCl2, and/or 0.5 to 20 μM of pTarg-pTox or pTarg-pSave. For the determination of the ΔΨm, mitochondria (0.5 mg protein per ml) are incubated in a buffer supplemented with 1 μM rhodamine 123 (Molecular Probes, Eugene, Oreg.) and the dequenching of rhodamine fluorescence (excitation 505 nm, emission 525 nm) is measured as described (Shimizu et al, 1998). Supernatants from mitochondria (6800 g for 15 min; then 20 000 g for 1 h; 4° C.) are frozen at −80° C. until determination of apoptogenic activity on isolated nuclei, DEVD-afc cleaving activity, and immunodetection of cytochrome c and AIF. Cytochrome c and AIF are detected by means of a monoclonal antibody (clone 7H8.2C12, Pharmingen) and a polyclonal rabbit anti-serum (Susin et al. 1999) respectively.

The target of experiment [2] is T1, Purified ANT (Rattus norvegicus, UniProt Q05962).
T1 sequence (Q05962 1-298): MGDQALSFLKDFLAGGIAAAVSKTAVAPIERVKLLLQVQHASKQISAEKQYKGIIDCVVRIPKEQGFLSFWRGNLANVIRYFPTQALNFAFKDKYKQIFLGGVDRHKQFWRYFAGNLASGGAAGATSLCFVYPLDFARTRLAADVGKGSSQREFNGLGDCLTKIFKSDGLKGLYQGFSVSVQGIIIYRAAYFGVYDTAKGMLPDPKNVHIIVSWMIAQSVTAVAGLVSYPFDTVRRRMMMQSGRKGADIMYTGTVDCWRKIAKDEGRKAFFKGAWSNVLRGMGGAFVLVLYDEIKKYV
As to the kind of experiment: biochemical. The format is binding. As for the experimental part: (§1) Sensor Chips SA (streptavidin coated sensor chips) were used for immobilisation of the different peptides. Tox1 was immobilised at a density of 0.7 ng/mm^2, Tox0 at a density of 3.7 ng/mm^2,. Ctr1Tox0 at a density of 1.4 ng/mm^2, Tox5 at a density of 1 ng/mm^2, Tox6 at a density of 1 ng/mm2, Save1 at a density of 1.3 ng/mm^2, and the control peptide at a density of 0.8 ng/mm^2. Association and dissociation kinetics of ANT and VDAC interactions were followed at a rate of 10 μL/min for 10 minutes (5 minutes association and 5 minutes dissociation). The ligand was regenerated with a 1 minute flux of KSCN 3M. The obtained sensorgrams were analysed by the BlAeval 3.1 software using the method of double references (Myszka D. G. 2000. Kinetic, equilibrium and thermodynamic analysis of macromolecular interactions with BIACORE. Methods Enzymol. 323:325-340). From the sensorgrams with the ligands were first substracted the sensorgrams obtained with the corresponding analyte solvents. A second substraction was performed with the sensorgrams obtained with the control peptide ligand. The control peptide for the Tox and Save peptides was biot-H19C corresponding to the sequence of the β2-adrenergic receptor (Lebesgue D., Wallukat G., Mijares A., Granier C., Argibay J., and Hoebeke J. (1998) An agonist-like monoclonal antibody to the human β 2-adrenergic receptor. Eur.J. Pharmacol. 348:123-133). The control peptide for Tox0 was Ctr1Tox0.

Experiment [3] concerns Purified VDAC. Put plainly: Surface plasmon resonance, immobilised peptides with purified VDAC. Format: binding. Particulars: for specific binding of VDAC: 50 nM VDAC. As for the experimental part:
as §1

Experiment [4] addresses T2, adenine nucleotide translocator (ANT), purified from rat heart mitochondria (rat), Q05962.
T2 chain: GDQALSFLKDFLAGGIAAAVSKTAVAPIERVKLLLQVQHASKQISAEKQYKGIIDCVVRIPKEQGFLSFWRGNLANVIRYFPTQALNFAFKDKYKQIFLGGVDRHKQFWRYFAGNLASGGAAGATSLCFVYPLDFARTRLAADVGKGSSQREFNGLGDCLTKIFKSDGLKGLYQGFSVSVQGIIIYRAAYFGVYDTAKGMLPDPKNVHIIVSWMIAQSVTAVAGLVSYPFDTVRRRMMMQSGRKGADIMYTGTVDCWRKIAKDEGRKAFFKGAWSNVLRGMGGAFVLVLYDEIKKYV

Experiment [5] concerns the target T2, adenine nucleotide translocator (ANT), …. Put plainly: SPR (BIAcore), peptide on streptavidin chip, ANT as analyte at one concentration (50 nM). A general note: Surface plasmon resonance follows binding to a sensor surface in real time, without labels.

Ends that are not written are not given here. Peptide text beside a SMILES is read from it. * marks the point of attachment. Biotin = O=C1N[C@H]2[C@H](CS[C@H]2CCCCC(=O)*)N1

Usually Kd stands for the constant that tells how readily two partners part at equilibrium.

In the case of `C=C1[C@@H]2CC[C@H]3[C@]4(C)C[C@H](O[C@@H]5O[C@H](CO)[C@@H](OS(=O)(=O)O)[C@H](OS(=O)(=O)O)[C@H]5OC(=O)CC(C)C)C[C@@H](C(=O)O)[C@H]4CC[C@]3(C2)[C@H]1O` [Atractyloside, atractyloside, reference compound], the “Mitrochondrial swelling (sw) %” value in experiment [1] (600 μM alone) worked out at 110%.
On to `[Ca+2]` [Ca 2 +, reference compound], for which the “Mitrochondrial swelling (sw) %” value in experiment [1] (100 μM alone) is given as 100%.
For the molecule `C[C@H](NC(=O)[C@H](Cc1ccccc1)NC(=O)[C@H](Cc1ccc(O)cc1)NC(=O)[C@H](CCCNC(=N)N)NC(=O)[C@H](Cc1c[nH]c2ccccc12)NC(=O)[C@H](Cc1ccccc1)NC(=O)[C@H](CCC(N)=O)NC(=O)[C@@H](NC(=O)[C@H](CCCNC(=N)N)NC(=O)[C@H](CCCCN)NC(=O)[C@H](CC(=O)O)NC(=O)[C@H](CCCNC(=N)N)NC(=O)[C@H](CCCNC(=N)N)NC(=O)[C@H](CCCNC(=N)N)NC(=O)[C@H](CCC(N)=O)NC(=O)[C@H](CCCNC(=N)N)NC(=O)[C@H](CCCNC(=N)N)NC(=O)[C@H](CCCCN)NC(=O)[C@H](CCCCN)NC(=O)[C@H](CCCNC(=N)N)NC(=O)CCCC[C@@H]1SC[C@@H]2NC(=O)N[C@@H]21)[C@@H](C)O)C(=O)NCC(=O)N[C@@H](CC(N)=O)C(=O)O` [Save1, Biot-RKKRRQRRR-DKRTQFWRYFAGN (hANT2)] (Biotin-RKKRRQRRRDKRTQFWRYFAGN-OH; C-terminus assumed), the “Mitrochondrial swelling (sw) %” value was 5% in experiment [1] (5 μM + Atr 600 μM), 2% in experiment [1] (5 μM alone), 12% in experiment [1] (20 μM + Atr 600 μM) and 12% in experiment [1] (20 μM alone). Also, the Kd in experiment [2] came out at 0.01 nM. Further, the “specific binding of VDAC” value in experiment [3] is on record as “did not result in any specific binding”.
For the molecule `CC[C@H](C)[C@H](NC(=O)CNC(=O)[C@@H](NC(=O)[C@H](CCCNC(=N)N)NC(=O)[C@H](CO)NC(=O)[C@H](Cc1c[nH]cn1)NC(=O)[C@H](CCCNC(=N)N)NC(=O)[C@H](CS)NC(=O)CNC(=O)[C@@H](NC(=O)[C@H](CCCNC(=N)N)NC(=O)[C@H](Cc1ccccc1)NC(=O)[C@H](Cc1c[nH]cn1)NC(=O)[C@@H](NC(=O)[C@H](Cc1ccccc1)NC(=O)[C@H](CC(C)C)NC(=O)[C@H](CC(C)C)NC(=O)[C@H](CCC(N)=O)NC(=O)[C@H](CCC(N)=O)NC(=O)[C@H](CC(C)C)NC(=O)[C@@H](NC(=O)[C@H](CCCNC(=N)N)NC(=O)[C@@H](NC(=O)[C@H](CC(C)C)NC(=O)[C@H](C)NC(=O)[C@H](CCC(=O)O)NC(=O)[C@@H](NC(=O)CNC(=O)[C@@H](NC(=O)[C@H](Cc1c[nH]c2ccccc12)NC(=O)[C@@H](NC(=O)[C@H](CC(=O)O)NC(=O)CCCC[C@@H]1SC[C@@H]2NC(=O)N[C@@H]21)[C@@H](C)O)[C@@H](C)O)C(C)C)[C@@H](C)CC)[C@@H](C)CC)[C@@H](C)CC)[C@@H](C)CC)[C@@H](C)CC)C(=O)N[C@H](C(=O)N[C@@H](CCC(N)=O)C(=O)N[C@@H](CCC(N)=O)C(=O)N[C@@H](CCCNC(=N)N)C(=O)N[C@@H](CCCNC(=N)N)C(=O)N[C@H](C(=O)N[C@@H](CCCNC(=N)N)C(=O)N[C@@H](CC(N)=O)C(=O)NCC(=O)N[C@@H](C)C(=O)N[C@@H](CO)C(=O)N[C@@H](CCCCN)C(=O)N[C@@H](CO)C(=O)O)[C@@H](C)O)[C@@H](C)CC` [Tox0], in experiment [2], the Kd was 0.15 nM.
For the molecule `C[C@@H](O)[C@H](NC(=O)[C@H](CCCNC(=N)N)NC(=O)[C@H](CCCCN)NC(=O)[C@H](CC(=O)O)NC(=O)CNC(=O)CNC(=O)[C@H](CS)NC(=O)[C@H](CCCNC(=N)N)NC(=O)CNC(=O)[C@H](CC(N)=O)NC(=O)[C@H](CS)NC(=O)CCCC[C@@H]1SC[C@@H]2NC(=O)N[C@@H]21)C(=O)N[C@@H](CCC(N)=O)C(=O)N[C@@H](Cc1ccccc1)C(=O)N[C@@H](Cc1c[nH]c2ccccc12)C(=O)N[C@@H](CCCNC(=N)N)C(=O)N[C@@H](Cc1ccc(O)cc1)C(=O)N[C@@H](Cc1ccccc1)C(=O)N1CCC[C@H]1C(=O)NCC(=O)N[C@@H](CC(N)=O)C(=O)O` [Tox5, Biot-CNGRC-GG-DKRTQFWRYFPGN (hANT2m)] (Biotin-CNGRCGGDKRTQFWRYFPGN-OH; N-terminus and C-terminus assumed), the “Induction of Mitochondrial swelling (sw)” value in experiment [1] is on record as “++”. Also, in experiment [3], the “specific binding of VDAC” value is “did not result in any specific binding”.
Turning to `C[C@H](NC(=O)CCCC[C@@H]1SC[C@@H]2NC(=O)N[C@@H]21)C(=O)N[C@@H](CS)C(=O)N[C@@H](CC(=O)O)C(=O)N[C@@H](CS)C(=O)N[C@@H](CCCNC(=N)N)C(=O)NCC(=O)N[C@@H](CC(=O)O)C(=O)N[C@@H](CS)C(=O)N[C@@H](Cc1ccccc1)C(=O)N[C@@H](CS)C(=O)NCC(=O)NCC(=O)N[C@@H](CC(=O)O)C(=O)N[C@@H](CCCCN)C(=O)N[C@@H](CCCNC(=N)N)C(=O)N[C@H](C(=O)N[C@@H](CCC(N)=O)C(=O)N[C@@H](Cc1ccccc1)C(=O)N[C@@H](Cc1c[nH]c2ccccc12)C(=O)N[C@@H](CCCNC(=N)N)C(=O)N[C@@H](Cc1ccc(O)cc1)C(=O)N[C@@H](Cc1ccccc1)C(=O)N1CCC[C@H]1C(=O)NCC(=O)N[C@@H](CC(N)=O)C(=O)O)[C@@H](C)O` [Tox6, Biot-ACDCRGDCFC-GG-DKRTQFWRYFPGN (hANT2m)] (Biotin-ACDCRGDCFCGGDKRTQFWRYFPGN-OH; N-terminus and C-terminus assumed), the “Induction of Mitochondrial swelling (sw)” value in experiment [1] is on record as “++”. The “specific binding of VDAC” value in experiment [3] was “did not result in any specific binding”.
As for Biot- CNGRC-GG-HFAIGCRHSAIG [Ctr1 Tox1], the “Induction of Mitochondrial swelling (sw)” value in experiment [1] is “−”.
As to Biot- CNGRC-GG-HFRIGCRHSRIG [Tox1], in experiment [1], the “Induction of Mitochondrial swelling (sw)” value is listed as “++”. The “binding to purified ANT (in words)” value in experiment [2] (surface plasmon resonance) is reported as “Binds”. The “association of VDAC with the peptide ligand” value in experiment [3] (VDAC concentrations ten times higher than ANT) is recorded as “only extremely low association”.
Biot-CNGRC-GG-CNGRC [Ctr2 Tox1]: the “Induction of Mitochondrial swelling (sw)” value in experiment [1] was “−”.
For the molecule Biot-GG-HFRIGCRHSRIG [Ctr3 Tox1], the “Induction of Mitochondrial swelling (sw)” value in experiment [1] is reported as “+”.
With “Biot-RKKRRQRRR-LASGGAAGATSLCFVYPL (hANT[117-134]) [Save2]”, the “Mitrochondrial swelling (sw) %” value was 16% in experiment [1] (10 μM + Atr 600 μM), 2% in experiment [1] (10 μM alone), 16% in experiment [1] (20 μM + Atr 600 μM) and 16% in experiment [1] (20 μM alone).

B1: Tox0 (Biotin-Vpr52-96) (peptide)
peptide: DTWTGVEALIRILQQLLFIHFRIGCRHSRIGIIQQRRTRNGASKS
modifications: not fully specified (N-terminus)
In the case of B1, the Kd in experiment [4] came out at 0.15 nM.

B2: Tox6 (Biot-…-GG-… (hANT2m)) (peptide)
peptide: ACDCRGDCFCGGDKRTQFWRYFPGN
modifications: not checked
B2: in experiment [5], the relative affinity worked out at 0.7 nM.

B3: Tox5 (Biot-CNGRC-GG-… (hANT2m)) (peptide)
peptide: CNGRCGGDKRTQFWRYFPGN
modifications: not checked
As for B3, the relative affinity in experiment [5] stood at 0.1 nM.

These data come from US20030077826A1, “Chimeric molecules containing a module able to target specific cells and a module regulating the apoptogenic function of the permeability transition pore complex (PTPC)” (priority 2001, published 2003).
